Tests used:
[1] = molecular target: T1, PI3K alpha (Homo sapiens, UniProt P42336); test: PI3K alpha kinase assay (Kinase-Glo luminescence); assay type: biochemical
T1 construct: p85(iSH2) fusion partner (see partner chain) (N); His tag (C); made in house; host or cells: baculovirus; Tn5 (Trichoplusia ni) or TiniPro insect cells
Summary of the method: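 Read-out: Kinase-Glo luminescence of ATP left after 60 min at room temperature. Conditions: 10 nM PI3Kα (EMV B1075), 1 μM ATP, 10 μg/mL PI substrate, Tris pH 7.5 buffer with MgCl2, NaCl, CHAPS and DTT. IC50s fitted with a four-parameter logistic model.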

[2] = system: PKB Ser473 phosphorylation in Rat1-myr-HA-p110 alpha cells; test: Reverse protein array assay, PKB Ser473 phosphorylation in Rat1-myr-p110 alpha cells; assay type: cell-based; settings: 0.5 h, pAkt Ser473, 30 minutes compound incubation, read-out: p-PKB IC50
Summary of the method: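 Cells: Rat1-myr-HA-p110 alpha/beta/delta, seeded ≥20 h. Lysis on ice 10 min; reverse-phase protein array, 4 lysate dilutions; fluorescence read, relative intensity.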

[3] = system: S6 Ribosomal Protein phosphorylation Ser235/236 in TSC1 null mouse embryo fibroblast (MEF) cells; test: Reverse protein array assay, S6 Ribosomal Protein phosphorylation Ser235/236 in TSC1 null MEF cells; assay type: cell-based; settings: 1 h, pS6 ribosomal protein Ser235/236, 60 minutes incubation, read-out: p-S6 IC50
Summary of the method: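 TSC1−/− MEFs, seeded and held ≥20 h at 37 °C/5% CO2, were exposed to 8-step serial compound dilutions (0.02% DMSO final; DMSO vehicle control) for 60 min at 37 °C. Cells were then lysed on ice for 10 min and lysates spotted onto reverse protein array chips.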

T1 sequence (P42336 with tags, fused parts or gaps limits assumed): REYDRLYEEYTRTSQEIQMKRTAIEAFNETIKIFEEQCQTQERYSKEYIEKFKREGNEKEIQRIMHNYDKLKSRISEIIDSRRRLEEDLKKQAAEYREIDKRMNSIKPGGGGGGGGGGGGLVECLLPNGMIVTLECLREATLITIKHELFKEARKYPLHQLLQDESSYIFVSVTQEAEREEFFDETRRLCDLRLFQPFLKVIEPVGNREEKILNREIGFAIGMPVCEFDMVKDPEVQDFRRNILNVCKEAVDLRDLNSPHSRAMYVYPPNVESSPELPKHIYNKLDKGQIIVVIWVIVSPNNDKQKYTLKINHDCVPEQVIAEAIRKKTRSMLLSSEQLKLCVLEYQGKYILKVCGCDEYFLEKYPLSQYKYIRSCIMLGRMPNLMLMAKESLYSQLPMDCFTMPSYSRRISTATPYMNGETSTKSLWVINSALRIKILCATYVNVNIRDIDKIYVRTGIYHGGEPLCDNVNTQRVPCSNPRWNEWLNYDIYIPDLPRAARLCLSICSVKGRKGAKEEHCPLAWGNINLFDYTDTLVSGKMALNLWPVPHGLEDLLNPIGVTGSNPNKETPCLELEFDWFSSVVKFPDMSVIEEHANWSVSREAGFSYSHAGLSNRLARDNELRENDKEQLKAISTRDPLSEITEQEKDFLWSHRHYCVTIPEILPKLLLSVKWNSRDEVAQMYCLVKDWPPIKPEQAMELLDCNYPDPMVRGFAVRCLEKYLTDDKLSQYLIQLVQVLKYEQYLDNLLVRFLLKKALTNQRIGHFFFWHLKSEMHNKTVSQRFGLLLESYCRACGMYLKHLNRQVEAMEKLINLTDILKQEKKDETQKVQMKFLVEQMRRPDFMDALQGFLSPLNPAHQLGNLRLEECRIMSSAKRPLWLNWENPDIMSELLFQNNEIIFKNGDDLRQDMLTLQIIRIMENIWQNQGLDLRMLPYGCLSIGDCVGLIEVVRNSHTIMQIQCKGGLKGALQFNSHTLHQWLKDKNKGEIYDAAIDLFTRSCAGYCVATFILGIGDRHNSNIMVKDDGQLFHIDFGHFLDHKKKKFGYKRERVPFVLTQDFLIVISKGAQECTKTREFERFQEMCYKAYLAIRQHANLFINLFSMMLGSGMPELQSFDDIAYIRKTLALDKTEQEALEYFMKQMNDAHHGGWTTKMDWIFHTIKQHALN

Row | SMILES | IC50 [1] [nM] | IC50 [2] [nM] | IC50 [3] [nM]
1 | Cc1nn(C)cc1-n1c(=O)n(C)c2cnc3ccc(-c4cncc(N(C)C5CCC5)c4)cc3c21 [Example 174, 8-[5-(Cyclobutyl-methyl-amino)-pyridin-3-yl]-1-(1,3-dimethyl-1H-pyrazol-4-yl)-3-methyl-1,3-dihydro-imidazo[4,5-c]quinolin-2-one] | 17 | 9 | 3
2 | Cc1cc(-n2c(=O)n(C)c3cnc4ccc(-c5cnc(C)c(O)c5)cc4c32)n(C)n1 [Example 185.2, 1-(2,5-Dimethyl-2H-pyrazol-3-yl)-8-(5-hydroxy-6-methyl-pyridin-3-yl)-3-methyl-1,3-dihydro-imidazo[4,5-c]quinolin-2-one] | 11 | 38 | 32
3 | [2H]C([2H])([2H])OCc1ncc(-c2ccc3ncc4c(c3c2)n(-c2cn(C)nc2C)c(=O)n4C)cc1OCC [Example 198, 1-(1,3-Dimethyl-1H-pyrazol-4-yl)-8-(5-ethoxy-6-trideuteromethoxymethyl-pyridin-3-yl)-3-methyl-1,3-dihydro-imidazo[4,5-c]quinolin-2-one] | 17 | 28 | 3
4 | CCn1cc(-n2c(=O)n(C)c3cnc4ccc(-c5cncc(C(C)(C)C#N)c5)cc4c32)c(C)n1 [Example 220.2, 2-{5-[1-(1-Ethyl-3-methyl-1H-pyrazol-4-yl)-3-methyl-2-oxo-2,3-dihydro-1H-imidazo[4,5-c]quinolin-8-yl]-pyridin-3-yl}-2-methyl-propionitrile] | 10 | 19 | 3
5 | CCNC(=O)c1cc(-c2ccc3ncc4c(c3c2)n(-c2cn(C(C)C)nc2C)c(=O)n4C)cnc1N [Example 227, 2-Amino-N-ethyl-5-[1-(1-isopropyl-3-methyl-1H-pyrazol-4-yl)-3-methyl-2-oxo-2,3-dihydro-1H-imidazo[4,5-c]quinolin-8-yl]-nicotinamide] | 71 | 136 | 12
6 | COc1ncc(-c2ccc3ncc4c(c3c2)n(-c2cc(C)nn2C)c(=O)n4C)c(OC)n1 [Example 234.4, 8-(2,4-Dimethoxy-pyrimidin-5-yl)-1-(2,5-dimethyl-2H-pyrazol-3-yl)-3-methyl-1,3-dihydro-imidazo[4,5-c]quinolin-2-one] | 64 | 17 | 10.1
7 | CNc1ccc(-c2ccc3ncc4c(c3c2)n(-c2cn(C(C)C)nc2C)c(=S)n4C)cn1 [Example 241, 1-(1-isopropyl-3-methyl-1H-pyrazol-4-yl)-3-methyl-8-(6-(methylamino)pyridin-3-yl)-1H-imidazo[4,5-c]quinoline-2(3H)-thione] | 18 | < 5 | < 0.5
8 | CCn1cc(-n2c(=O)n(C)c3cnc4ccc(-c5ccc(OC)c(OC)c5)nc4c32)c(C)n1 [Example 254, 8-(3,4-Dimethoxy-phenyl)-1-(1-ethyl-3-methyl-1H-pyrazol-4-yl)-3-methyl-1,3-dihydro-1,3,5,9-tetraaza-cyclopenta[a]naphthalen-2-one] | 11 | 30 | 58
